“Also recorded” adds a separate entry of the source.
How the values were obtained:
[1] = molecular target: ITK (Homo sapiens (Human), UniProt Q08881); assay: Omnia assay for potency assessment against active forms of ITK kinase; type: biochemical; details: [ITK]=10 nM, [ATP]=25, [Y6-Sox]=10 μM; read-out: ITK Inhibition
Protocol: [ITK]=10 nM, [ATP]=25 [Y6-Sox]=10 μM (ATP KMapp=33 μM).

[2] = molecular target: EGFR-T790M/L858R (Homo sapiens (Human), UniProt P00533, L858R/T790M); assay: Omnia assay for potency assessment against EGFR (T790M/L858R); details: read-out: EGFR (T790M/L858R); EGFR mutant T790M/L858R
[3] = molecular target: TEC kinase (Homo sapiens (Human), UniProt P42680); assay: Mass spectrometry for TEC kinase (tryptic digest); type: binding; details: 3 hrs at 10× excess
Protocol: TEC kinase (45 pmols; Invitrogen) was incubated with (I-2) (450 pmols) for 3 hrs at 10× excess prior to tryptic digestion. Iodoacetamide was used as the alkylating agent after compound incubation. […] For tryptic digests a 5 ul aliquot (7.5 pmols) was diluted with 15 ul of 0.1% TFA prior to micro C18 Zip Tipping directly onto the MALDI target using alpha cyano-4-hydroxy cinnamic acid as the matrix (5 mg/ml in 0.1% TFA:Acetonitrile 50:50).
As depicted in FIG. 6, the expected peptide ([…]) to be modified was immediately evident after reaction with I-2 (MI mass of 359.17 Da) at MH+ of 1294.72. The peptide was also quite evident in the control sample as modified by Iodacetamide at MH+ of 992.56. […] There was no evidence of other modified peptides.
The fragmentation spectra of the 360.17 peak did show diagnostic fragments that were apparent in the PSD spectra of the modified peptide at 1294.72 (See FIG. 6).
To further verify the presence of the modified peptides, both the iodoacetamide labeled (992.56) and I-2 labeled (1294.72) were subjected to PSD (MS/MS) analysis. After a database search of the NCBI nr Homo sapien database using Mascot MS/MS Ion Search program the top match was the expected peptide in both cases.
For tryptic digests the instrument was set in Reflectron mode with a pulsed extraction setting of 2200. Calibration was done using the Laser Biolabs Pep Mix standard ([…], 1296.69, 1672.92, 2093.09, 2465.20). For CID/PSD analysis the peptide was selected using cursors to set ion gate timing and fragmentation occurred at a laser power about 20% higher and He was used as the collision gas for CID. Calibration for fragments was done using the P14R fragmentation calibration for the Curved field Reflectron.
TEC kinase (45 pmols; Invitrogen) was incubated with (I-4) (450 pmols) for 3 hrs at 10× excess prior to tryptic digestion. Iodoacetamide was used as the alkylating agent after compound incubation. […]

[4] = molecular target: EGFR-WT (Homo sapiens (Human), UniProt P00533); assay: Omnia assay for potency assessment against EGFR (WT); details: read-out: EGFR (wild type inhibition); EGFR wild type
[5] = molecular target: BTK (Homo sapiens (Human), UniProt Q06187); assay: Omnia assay for potency assessment against BTK; type: biochemical; details: [BTK]=5 nM, Omnia assay; read-out: BTK Inhibition (IC50)
Protocol: The modified BTK-optimized reagent conditions for the above protocol are:
[BTK]=5 nM, [ATP]=[…], [Y5-Sox]=[…] (ATP KMapp˜[…]).

[6] = molecular target: BMX (Homo sapiens (Human), UniProt P51813); assay: Omnia assay for potency assessment against active forms of BMX kinase; type: biochemical; details: [BMX]=2.5 nM, [ATP]=100 μM, [Y5-Sox]=7.5 μM; read-out: BMX Inhibition
Protocol: Briefly, 10× stocks of EGFR-WT (PV3872) from Invitrogen and EGFR-T790M/L858R (40350) from BPS Bioscience, San Diego, Calif., 1.13×ATP (AS001A) and appropriate Tyr-Sox conjugated peptide substrates (KCZ1001) were prepared in 1× kinase reaction buffer consisting of 20 mM Tris, pH 7.5, 5 mM MgCl2, 1 mM EGTA, 5 mM β-glycerophosphate, 5% glycerol (10× stock, KB002A) and 0.2 mM DTT (DS001A).
This example describes continuous-read kinase assays to measure inherent potency of compound against active forms of BMX enzymes as described in Example 251 above except that the modified BMX-optimized reagent conditions are:
[BMX]=2.5 nM, [ATP]=100 μM, [Y5-Sox]=7.5 μM (ATP KMapp=107 μM).

TEC kinase, sequence (P42680 whole entry): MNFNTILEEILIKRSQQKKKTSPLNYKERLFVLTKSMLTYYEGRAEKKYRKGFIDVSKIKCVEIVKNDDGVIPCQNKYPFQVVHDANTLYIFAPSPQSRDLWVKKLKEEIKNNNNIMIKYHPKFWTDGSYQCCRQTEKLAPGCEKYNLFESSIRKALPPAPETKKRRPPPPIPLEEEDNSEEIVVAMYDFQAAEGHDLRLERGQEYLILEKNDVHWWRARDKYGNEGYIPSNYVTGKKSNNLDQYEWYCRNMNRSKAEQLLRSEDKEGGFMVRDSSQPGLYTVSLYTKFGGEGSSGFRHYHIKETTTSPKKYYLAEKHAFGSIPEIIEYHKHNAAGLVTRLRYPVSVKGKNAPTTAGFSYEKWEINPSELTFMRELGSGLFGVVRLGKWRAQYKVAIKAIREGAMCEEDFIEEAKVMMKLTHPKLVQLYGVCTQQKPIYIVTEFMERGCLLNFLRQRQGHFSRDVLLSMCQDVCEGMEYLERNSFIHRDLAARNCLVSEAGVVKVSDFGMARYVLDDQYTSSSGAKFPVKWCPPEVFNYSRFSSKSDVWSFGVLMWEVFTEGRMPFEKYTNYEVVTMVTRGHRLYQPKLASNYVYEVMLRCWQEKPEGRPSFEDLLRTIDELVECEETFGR
EGFR-WT, sequence (P00533 668-1210): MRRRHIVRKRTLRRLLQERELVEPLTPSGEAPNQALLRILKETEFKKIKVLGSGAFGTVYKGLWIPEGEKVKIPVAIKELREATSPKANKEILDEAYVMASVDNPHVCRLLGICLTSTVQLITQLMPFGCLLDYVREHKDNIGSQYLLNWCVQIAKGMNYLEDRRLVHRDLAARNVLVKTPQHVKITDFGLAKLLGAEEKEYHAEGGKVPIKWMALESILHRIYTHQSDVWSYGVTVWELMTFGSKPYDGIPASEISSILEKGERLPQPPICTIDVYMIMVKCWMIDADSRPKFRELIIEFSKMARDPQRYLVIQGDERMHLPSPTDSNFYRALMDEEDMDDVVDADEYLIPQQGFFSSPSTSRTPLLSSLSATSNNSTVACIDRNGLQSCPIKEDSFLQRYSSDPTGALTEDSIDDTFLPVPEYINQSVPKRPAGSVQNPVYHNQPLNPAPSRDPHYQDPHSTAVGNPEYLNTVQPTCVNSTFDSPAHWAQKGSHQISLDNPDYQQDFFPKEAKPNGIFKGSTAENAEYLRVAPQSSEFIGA
BMX, sequence (P51813 whole entry): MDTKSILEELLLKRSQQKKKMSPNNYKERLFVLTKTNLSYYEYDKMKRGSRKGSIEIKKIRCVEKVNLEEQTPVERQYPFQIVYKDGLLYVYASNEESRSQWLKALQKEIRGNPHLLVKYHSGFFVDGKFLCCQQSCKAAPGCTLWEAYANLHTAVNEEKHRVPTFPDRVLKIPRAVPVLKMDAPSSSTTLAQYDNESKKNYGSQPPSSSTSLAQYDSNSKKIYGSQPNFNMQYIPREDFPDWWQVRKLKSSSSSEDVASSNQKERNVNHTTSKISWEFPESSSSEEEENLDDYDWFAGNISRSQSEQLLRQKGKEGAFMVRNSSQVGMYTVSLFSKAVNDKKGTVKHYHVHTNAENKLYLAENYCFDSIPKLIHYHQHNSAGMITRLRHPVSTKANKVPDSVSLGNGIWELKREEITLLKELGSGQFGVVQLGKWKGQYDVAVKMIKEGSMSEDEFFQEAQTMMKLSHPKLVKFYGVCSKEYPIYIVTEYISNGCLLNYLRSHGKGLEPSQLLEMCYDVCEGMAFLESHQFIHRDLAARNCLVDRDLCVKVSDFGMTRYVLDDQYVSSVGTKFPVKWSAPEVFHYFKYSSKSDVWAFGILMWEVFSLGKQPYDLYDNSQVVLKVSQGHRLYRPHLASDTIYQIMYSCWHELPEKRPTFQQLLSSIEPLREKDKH
EGFR-T790M/L858R, sequence (P00533 25-1210 T790M/L858R): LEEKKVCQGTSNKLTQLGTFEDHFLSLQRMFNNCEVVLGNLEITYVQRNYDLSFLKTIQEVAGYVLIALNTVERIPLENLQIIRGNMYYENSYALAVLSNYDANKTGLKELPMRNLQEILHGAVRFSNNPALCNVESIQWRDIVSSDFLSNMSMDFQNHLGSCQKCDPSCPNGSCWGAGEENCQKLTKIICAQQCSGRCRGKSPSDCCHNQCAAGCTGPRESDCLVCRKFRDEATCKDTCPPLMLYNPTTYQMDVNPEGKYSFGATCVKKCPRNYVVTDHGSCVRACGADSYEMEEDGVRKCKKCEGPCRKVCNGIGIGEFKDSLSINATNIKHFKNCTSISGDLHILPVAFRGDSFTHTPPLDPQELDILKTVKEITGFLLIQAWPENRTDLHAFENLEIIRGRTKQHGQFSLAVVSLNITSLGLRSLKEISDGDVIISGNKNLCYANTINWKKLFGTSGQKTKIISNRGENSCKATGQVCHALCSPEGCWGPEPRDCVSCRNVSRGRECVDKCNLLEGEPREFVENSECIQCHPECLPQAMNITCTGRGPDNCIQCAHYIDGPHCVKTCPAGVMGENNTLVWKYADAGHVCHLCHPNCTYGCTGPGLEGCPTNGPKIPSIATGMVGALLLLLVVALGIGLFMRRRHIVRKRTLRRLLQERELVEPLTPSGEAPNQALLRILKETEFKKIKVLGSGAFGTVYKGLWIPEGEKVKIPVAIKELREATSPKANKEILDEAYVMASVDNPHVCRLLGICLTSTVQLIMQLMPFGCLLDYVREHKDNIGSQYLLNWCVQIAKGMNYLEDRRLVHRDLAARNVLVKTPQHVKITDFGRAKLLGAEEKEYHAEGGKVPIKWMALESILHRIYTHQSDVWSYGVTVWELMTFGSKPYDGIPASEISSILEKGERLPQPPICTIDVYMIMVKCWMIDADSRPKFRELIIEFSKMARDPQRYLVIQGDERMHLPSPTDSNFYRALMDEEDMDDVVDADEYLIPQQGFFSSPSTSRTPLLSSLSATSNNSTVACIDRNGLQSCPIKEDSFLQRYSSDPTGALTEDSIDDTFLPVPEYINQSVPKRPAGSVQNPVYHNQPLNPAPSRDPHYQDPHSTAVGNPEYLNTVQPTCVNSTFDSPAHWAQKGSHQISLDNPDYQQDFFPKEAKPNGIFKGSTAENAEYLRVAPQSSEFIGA
BTK, sequence (Q06187 whole entry): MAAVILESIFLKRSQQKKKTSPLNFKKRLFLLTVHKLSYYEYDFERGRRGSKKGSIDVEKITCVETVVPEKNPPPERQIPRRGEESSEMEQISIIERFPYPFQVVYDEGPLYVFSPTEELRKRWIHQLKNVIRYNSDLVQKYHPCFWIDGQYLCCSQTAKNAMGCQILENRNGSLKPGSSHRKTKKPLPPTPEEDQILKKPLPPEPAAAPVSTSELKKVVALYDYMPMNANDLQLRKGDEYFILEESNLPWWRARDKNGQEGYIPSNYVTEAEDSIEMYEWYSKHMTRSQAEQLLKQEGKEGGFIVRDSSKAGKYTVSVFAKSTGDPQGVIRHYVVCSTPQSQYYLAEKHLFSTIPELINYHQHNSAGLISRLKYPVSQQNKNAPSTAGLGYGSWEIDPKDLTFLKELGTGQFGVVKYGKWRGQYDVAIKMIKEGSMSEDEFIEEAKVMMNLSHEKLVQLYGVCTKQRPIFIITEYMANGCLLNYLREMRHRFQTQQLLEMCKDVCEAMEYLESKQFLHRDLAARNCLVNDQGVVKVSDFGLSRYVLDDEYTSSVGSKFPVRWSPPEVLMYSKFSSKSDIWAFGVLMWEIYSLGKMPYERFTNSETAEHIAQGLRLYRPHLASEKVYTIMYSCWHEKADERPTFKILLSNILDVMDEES
ITK, sequence (Q08881 whole entry): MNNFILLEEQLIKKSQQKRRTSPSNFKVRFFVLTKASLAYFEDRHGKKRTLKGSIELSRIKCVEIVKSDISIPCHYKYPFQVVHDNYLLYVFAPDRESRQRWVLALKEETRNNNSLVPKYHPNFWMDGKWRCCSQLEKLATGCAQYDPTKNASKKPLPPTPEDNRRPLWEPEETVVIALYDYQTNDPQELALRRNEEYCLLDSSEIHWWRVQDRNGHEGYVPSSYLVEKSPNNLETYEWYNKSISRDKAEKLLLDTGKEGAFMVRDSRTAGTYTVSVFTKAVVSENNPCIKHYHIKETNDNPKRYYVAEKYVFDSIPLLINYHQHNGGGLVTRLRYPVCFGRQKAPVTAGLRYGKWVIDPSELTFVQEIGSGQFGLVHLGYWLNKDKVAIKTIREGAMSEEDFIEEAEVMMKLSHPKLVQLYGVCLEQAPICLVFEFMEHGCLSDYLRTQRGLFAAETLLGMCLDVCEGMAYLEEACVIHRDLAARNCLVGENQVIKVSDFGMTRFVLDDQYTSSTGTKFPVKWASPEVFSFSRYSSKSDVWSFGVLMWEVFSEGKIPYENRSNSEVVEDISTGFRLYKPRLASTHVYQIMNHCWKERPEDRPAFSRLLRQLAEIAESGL

## Cc1cccc(Nc2nc(Nc3cccc(NC(=O)/C=C/CN(C)C)c3)ncc2F)c1 [Compound I-4, (E)-4-(dimethylamino)-N-(3-(5-fluoro-4-(m-tolylamino)pyrimidin-2-ylamino)phenyl)but-2-enamide]
[1]
  IC50: 10 to 100 nM
[2]
  IC50: < 10 nM
[3]
  covalent modification of TEC kinase (Cys449, peptide GCLLNFLR) by mass spectrometry: reaction was complete; also recorded: covalent modification
[4]
  IC50: < 10 nM
[5]
  IC50: < 10 nM
[6]
  IC50: < 10 nM

## C=CC(=O)Nc1cccc(Nc2nc(Nc3ccccc3)ncc2C)c1 [Compound I-7, N-(3-(5-methyl-2-(phenylamino)pyrimidin-4-ylamino)phenyl) acrylamide]
[1]
  IC50: < 10 nM
[2]
  IC50: < 10 nM
[3]
  covalent modification of TEC kinase (Cys449, peptide GCLLNFLR) by mass spectrometry: reaction was complete; also recorded: covalent modification
[4]
  IC50: < 10 nM
[5]
  IC50: < 10 nM
[6]
  IC50: < 10 nM
